In US10647713B2 (Nimbus Lakshmi, Inc., priority 2016, dated 2020):

What follows are compounds tested against human TYK2 (JH2domain-pseudokinase) (Homo sapiens (Human), UniProt P29597) (assay: TYK2 JH2 Domain Binding Assay (KINOMEscan, DiscoveRx)). Conditions: 11-point dilution, duplicate.
human TYK2 (JH2domain-pseudokinase), sequence (P29597 556-888): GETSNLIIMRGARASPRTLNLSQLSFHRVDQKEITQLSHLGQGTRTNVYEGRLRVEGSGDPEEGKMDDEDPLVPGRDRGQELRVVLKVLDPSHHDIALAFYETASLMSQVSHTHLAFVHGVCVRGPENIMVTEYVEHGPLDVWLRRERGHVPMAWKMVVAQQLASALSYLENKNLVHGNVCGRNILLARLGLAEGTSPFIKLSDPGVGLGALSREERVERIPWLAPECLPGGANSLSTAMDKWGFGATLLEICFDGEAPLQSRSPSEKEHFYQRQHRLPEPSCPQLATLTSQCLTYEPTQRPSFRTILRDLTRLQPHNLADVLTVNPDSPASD
Procedure: Binding constants for compounds of the present invention against the JH2 domain were determined by the following protocol for a KINOMEscan® assay (DiscoveRx). A fusion protein of a partial length construct of human TYK2 (JH2domain-pseudokinase) (amino acids G556 to D888 based on reference sequence NP_003322.3) and the DNA binding domain of NFkB was expressed in transiently transfected HEK293 cells. From these HEK 293 cells, extracts were prepared in M-PER extraction buffer (Pierce) in the presence of Protease Inhibitor Cocktail Complete (Roche) and Phosphatase Inhibitor Cocktail Set II (Merck) per manufacturers' instructions. The TYK2 (JH2domain-pseudokinase) fusion protein was labeled with a chimeric double-stranded DNA tag containing the NFkB binding site (5′-GGGAATTCCC-3′) fused to an amplicon for qPCR readout, which was added directly to the expression extract (the final concentration of DNA-tag in the binding reaction is 0.1 nM).
Streptavidin-coated magnetic beads (Dynal M280) were treated with a biotinylated small molecule ligand for 30 minutes at room temperature to generate affinity resins the binding assays. The liganded beads were blocked with excess biotin and washed with blocking buffer (SeaBlock (Pierce), 1% BSA, 0.05% Tween 20, 1 mM DTT) to remove unbound ligand and to reduce nonspecific binding.
The binding reaction was assembled by combining 16 μl of DNA-tagged kinase extract, 3.8 μl liganded affinity beads, and 0.18 μl test compound (PBS/0.05% Tween 20/10 mM DTT/0.1% BSA/2 μg/ml sonicated salmon sperm DNA)]. Extracts were used directly in binding assays without any enzyme purification steps at a ≥10,000-fold overall stock dilution (final DNA-tagged enzyme concentration <0.1 nM). Extracts were loaded with DNA-tag and diluted into the binding reaction in a two step process. First extracts were diluted 1:100 in 1× binding buffer (PBS/0.05% Tween 20/10 mM DTT/0.1% BSA/2 μg/ml sonicated salmon sperm DNA) containing 10 nM DNA-tag. This dilution was allowed to equilibrate at room temperature for 15 minutes and then subsequently diluted 1:100 in 1× binding buffer. Test compounds were prepared as 111× stocks in 100% DMSO. Kds were determined using an 11-point 3-fold compound dilution series with three DMSO control points. All compounds for Kd measurements are distributed by acoustic transfer (non-contact dispensing) in 100% DMSO. The compounds were then diluted directly into the assays such that the final concentration of DMSO was 0.9%. All reactions performed in polypropylene 384-well plates. Each was a final volume of 0.02 mL. Assays were incubated with shaking for 1 hour at room temperature. Then the beads were pelleted and washed with wash buffer (1×PBS, 0.05% Tween 20) to remove displaced kinase and test compound. The washed based were re-suspended in elution buffer (1×PBS, 0.05% Tween 20, 0.5 μM non-biotinylated affinity ligand) and incubated at room temperature with shaking for 30 minutes. The kinase concentration in the eluates was measured by qPCR. qPCR reactions were assembled by adding 2.5 μL of kinase eluate to 7.5 μL of qPCR master mix containing 0.15 μM amplicon primers and 0.15 μM amplicon probe. The qPCR protocol consisted of a 10 minute hot start at 95° C., followed by 35 cycles of 95° C. for 15 seconds, 60° C. for 1 minute.
Test compounds were prepared as 111× stocks in 100% DMSO. Kds were determined using an 11-point 3-fold compound dilution series with three DMSO control points. All compounds for Kd measurements are distributed by acoustic transfer (non-contact dispensing) in 100% DMSO. The compounds were then diluted directly into the assays such that the final concentration of DMSO was 0.9%. The Kds were determined using a compound top concentration of 30,000 nM. Kd measurements were performed in duplicate.
Binding constants (Kds) were calculated with a standard dose-response curve using the Hill equation: […]
The Hill Slope was set to −1. […]
`CN(c1cc(-c2cnn(C)c2)ccc1Nc1cc(NC(=O)[C@@H]2C[C@@H]2F)nc2[nH]c(C(F)F)nc12)S(C)(=O)=O` (stereo in doubt) [Compound I-207] showed a Kd of 100 to 500 pM.
For `COc1c(Nc2cc(NC(=O)[C@@H]3C[C@@H]3F)nc3[nH]c(C(F)F)nc23)cccc1-c1ncn(C)n1` (stereo in doubt) [I-213, N-(2-(difluoromethyl)-7-((2-methoxy-3-(1-methyl-1H-1,2,4-triazol-3-yl)phenyl)amino)-3H-imidazo[4,5-b]pyridin-5-yl)-2-fluorocyclopropane-1-carboxamide], the Kd was 100 to 500 pM.
For `CN(c1cc(-c2cnn(C)c2)ccc1Nc1cc(NC(=O)[C@@H]2C[C@@H]2F)nc2[nH]c(C(F)F)nc12)S(C)(=O)=O` (stereo in doubt) [I-235, (1S,2S)—N-(2-(difluoromethyl)-7-((4-(1-methyl-1H-pyrazol-4-yl)-2-(N-methylmethylsulfonamido)phenyl)amino)-3H-imidazo[4,5-b]pyridin-5-yl)-2-fluorocyclopropane-1-carboxamide], the Kd was under 100 pM.
`Cc1nc2c(Nc3ccc(C4CCCOC4)cc3S(C)(=O)=O)cc(NC(=O)C3CC3)nc2[nH]1` (stereo in doubt) [I-254, (R)—N-(2-methyl-7-((2-(methylsulfonyl)-4-(tetrahydro-2H-pyran-3-yl)phenyl)amino)-3H-imidazo[4,5-b]pyridin-5-yl)cyclopropanecarboxamide] was tested, and the Kd was 500 to 1000 pM.
`Cc1nc2c(Nc3ccc([C@@H]4CCCCO4)cc3S(C)(=O)=O)cc(NC(=O)[C@@H]3CC3(F)F)nc2[nH]1` (stereo in doubt) [I-324, 2,2-difluoro-N-(2-methyl-7-((2-(methylsulfonyl)-4-((R)-tetrahydro-2H-pyran-2-yl)phenyl)amino)-3H-imidazo[4,5-b]pyridin-5-yl)cyclopropane-1-carboxamide] showed a Kd of 1000 to 10000 pM.
Compound `COc1c(Nc2cc(NC(=O)C3C[C@@H]3F)nc3[nH]c(C)nc23)cccc1-c1ncn(C)n1` (stereo in doubt) [I-368, 2-fluoro-N-(7-((2-methoxy-3-(1-methyl-1H-1,2,4-triazol-3-yl)phenyl)amino)-2-methyl-3H-imidazo[4,5-b]pyridin-5-yl)cyclopropane-1-carboxamide] has a Kd of 500 to 1000 pM.
For `COc1c(Nc2cc(NC(=O)C3C[C@@H]3F)nc3[nH]c(C(F)F)nc23)cccc1-c1ncn(C)n1` (stereo in doubt) [I-374, N-(2-(difluoromethyl)-7-((2-methoxy-3-(1-methyl-1H-1,2,4-triazol-3-yl)phenyl)amino)-3H-imidazo[4,5-b]pyridin-5-yl)-2-fluorocyclopropane-1-carboxamide], the Kd was 1000 to 10000 pM.
In the case of `CN=S(C)(=O)c1ccccc1Nc1cc(NC(=O)C2CC2)nc2[nH]c(C)nc12` (stereo in doubt) [I-548, (S)—N-(7-((2-(N,S-dimethylsulfonimidoyl)phenyl)amino)-2-methyl-3H-imidazo[4,5-b]pyridin-5-yl)cyclopropanecarboxamide], the Kd is reported as 100 to 500 pM.
With `Cc1nc2c(Nc3ccc(C4CCCCO4)cc3S(C)(=O)=O)cc(Nc3cc4n(n3)CCOC4)nc2[nH]1` (stereo in doubt) [I-586, (R)—N5-(6,7-dihydro-4H-pyrazolo[5,1-c][1,4]oxazin-2-yl)-2-methyl-N7-(2-(methylsulfonyl)-4-(tetrahydro-2H-pyran-2-yl)phenyl)-3H-imidazo[4,5-b]pyridine-5,7-diamine] the Kd was 100 to 500 pM.
`CS(=O)(=O)c1cc(C2COCCO2)ccc1Nc1cc(NC(=O)C2CC2)nc2[nH]c(C(F)F)nc12` (stereo in doubt) [I-613, (R)—N-(7-((4-(1,4-dioxan-2-yl)-2-(methylsulfonyl)phenyl)amino)-2-(difluoromethyl)-3H-imidazo[4,5-b]pyridin-5-yl)cyclopropanecarboxamide] showed a Kd of 100 to 500 pM.
`CS(=O)(=O)c1cc(C2COCCO2)ccc1Nc1cc(NC(=O)C2CC2)nc2[nH]c(C(F)F)nc12` (stereo in doubt) [I-614, (S)—N-(7-((4-(1,4-dioxan-2-yl)-2-(methylsulfonyl)phenyl)amino)-2-(difluoromethyl)-3H-imidazo[4,5-b]pyridin-5-yl)cyclopropanecarboxamide] was tested, and the Kd was 100 to 500 pM.
In the case of `COc1c(Nc2cc(NC(=O)C3CC3)nc3[nH]cnc23)cccc1-c1ncn(C)n1` [I-1, N-(7-((2-methoxy-3-(1-methyl-1H-1,2,4-triazol-3-yl)phenyl)amino)-3H-imidazo[4,5-b]pyridin-5-yl)cyclopropanecarboxamide], the Kd is reported as 100 to 500 pM.
`COc1c(Nc2cc(Nc3cc(C)c(F)cn3)nc3[nH]cnc23)cccc1-c1ncn(C)n1` [I-2, N5-(5-fluoro-4-methylpyridin-2-yl)-N7-(2-methoxy-3-(1-methyl-1H-1,2,4-triazol-3-yl)phenyl)-3H-imidazo[4,5-b]pyridine-5,7-diamine] was tested, and the Kd was 500 to 1000 pM.
For `COc1c(Nc2cc(Nc3cc(C)nc(C)n3)nc3[nH]cnc23)cccc1-c1ncn(C)n1` [I-3, N5-(2,6-dimethylpyrimidin-4-yl)-N7-(2-methoxy-3-(1-methyl-1H-1,2,4-triazol-3-yl)phenyl)-3H-imidazo[4,5-b]pyridine-5,7-diamine], the Kd was 100 to 500 pM.
With `COc1c(Nc2cc(Nc3ccc(C)nn3)nc3[nH]cnc23)cccc1-c1ncn(C)n1` [I-4, N7-(2-methoxy-3-(1-methyl-1H-1,2,4-triazol-3-yl)phenyl)-N5-(6-methylpyridazin-3-yl)-3H-imidazo[4,5-b]pyridine-5,7-diamine] the Kd was 100 to 500 pM.
`COc1c(Nc2cc(Nc3cc(CO)ccn3)nc3[nH]cnc23)cccc1-c1ncn(C)n1` [I-5, (2-((7-((2-methoxy-3-(1-methyl-1H-1,2,4-triazol-3-yl)phenyl)amino)-3H-imidazo[4,5-b]pyridin-5-yl)amino)pyridin-4-yl)MeOH] gave a Kd of 500 to 1000 pM.
Compound `COc1c(Nc2cc(Nc3ccc(N4CCCCC4)cn3)nc3[nH]cnc23)cccc1-c1ncn(C)n1` [I-6, N7-(2-methoxy-3-(1-methyl-1H-1,2,4-triazol-3-yl)phenyl)-N5-(5-(piperidin-1-yl)pyridin-2-yl)-3H-imidazo[4,5-b]pyridine-5,7-diamine] has a Kd of 500 to 1000 pM.
For `COc1c(Nc2cc(Nc3ccc(N4CCOCC4)cn3)nc3[nH]cnc23)cccc1-c1ncn(C)n1` [I-7, N7-(2-methoxy-3-(1-methyl-1H-1,2,4-triazol-3-yl)phenyl)-N5-(5-morpholinopyridin-2-yl)-3H-imidazo[4,5-b]pyridine-5,7-diamine], the Kd was 100 to 500 pM.
`COc1c(Nc2cc(Nc3ccn(C)n3)nc3[nH]cnc23)cccc1-c1ncn(C)n1` [I-8, N7-(2-methoxy-3-(1-methyl-1H-1,2,4-triazol-3-yl)phenyl)-N5-(1-methyl-1H-pyrazol-3-yl)-3H-imidazo[4,5-b]pyridine-5,7-diamine] gave a Kd of 1000 to 10000 pM.
In the case of `COc1c(Nc2cc(NC(=O)C3CC3)nc3[nH]c(C4CC4)nc23)cccc1-c1ncn(C)n1` [I-9, N-(2-cyclopropyl-7-((2-methoxy-3-(1-methyl-1H-1,2,4-triazol-3-yl)phenyl)amino)-3H-imidazo[4,5-b]pyridin-5-yl)cyclopropanecarboxamide], the Kd is reported as over 10000 pM.
Work on `COc1c(Nc2cc(NC(=O)C3CC3)nc3[nH]c(CO)nc23)cccc1-c1ncn(C)n1` [I-10, N-(2-(hydroxymethyl)-7-((2-methoxy-3-(1-methyl-1H-1,2,4-triazol-3-yl)phenyl)amino)-3H-imidazo[4,5-b]pyridin-5-yl)cyclopropanecarboxamide] yielded a Kd of 1000 to 10000 pM.
For `COc1nc2c(Nc3cccc(-c4ncn(C)n4)c3OC)cc(NC(=O)C3CC3)nc2[nH]1` [I-11], the Kd was 1000 to 10000 pM.
With `COc1c(Nc2cc(NC(=O)C3CC3)nc3[nH]c(C(F)F)nc23)cccc1-c1ncn(C)n1` [I-13, N-(2-(difluoromethyl)-7-((2-methoxy-3-(1-methyl-1H-1,2,4-triazol-3-yl)phenyl)amino)-3H-imidazo[4,5-b]pyridin-5-yl)cyclopropanecarboxamide] the Kd was 100 to 500 pM.
